Values joined by “and” are separate entries in the source; they are usually repeats but may differ in a detail not shown here. Equal values may be shown once.
Experiments:
Format in all cases: cell-based
Design in all cases: GPCRome screening signal at PTGIR / GPCRome screening signal at PTH1R / GPCRome screening signal at PTH2R / GPCRome screening signal at QRFP / GPCRome screening signal at RXFP2 / GPCRome screening signal at RXFP3 / GPCRome screening signal at RXFP4 / GPCRome screening signal at S1PR2 / GPCRome screening signal at S1PR3 / GPCRome screening signal at S1PR4 / GPCRome screening signal at S1PR5 / GPCRome screening signal at SCTR / GPCRome screening signal at SSTR2 / GPCRome screening signal at SSSTR / GPCRome screening signal at SSTR4 / GPCRome screening signal at SSTR5 / GPCRome screening signal at SUCNR1 / GPCRome screening signal at TA1 / GPCRome screening signal at TAAR2 / GPCRome screening signal at TAAR5 / GPCRome screening signal at TAAR6 / GPCRome screening signal at TAAR8 / GPCRome screening signal at TACR1 / GPCRome screening signal at TACR2 / GPCRome screening signal at TACR3 / GPCRome screening signal at TBXA2R / GPCRome screening signal at TSHR / GPCRome screening signal at UTS2R / GPCRome screening signal at VIPR2 / GPCRome screening signal at GPR68 no V2 Tail / GPCRome screening signal at GRM2 / GPCRome screening signal at GRM3: reference not given here
320 non-olfactory GPCRs [1] = biological target: T1, 320 non-olfactory GPCRs (Homo sapiens, UniProt P43119); details: receptor PTGIR
T1 construct: expressed in transfected cells; host or cells: HTLA cells

320 non-olfactory GPCRs [2] = biological target: 320 non-olfactory GPCRs (Homo sapiens, UniProt P30872); details: receptor SSTR1
320 non-olfactory GPCRs [3] = biological target: T2, 320 non-olfactory GPCRs (Homo sapiens, UniProt Q96RI8); details: receptor TAAR6
T2 construct: expressed in transfected cells; host or cells: HTLA cells

320 non-olfactory GPCRs [4] = biological target: 320 non-olfactory GPCRs (Homo sapiens, UniProt P35346); details: receptor SSTR5
[5] = Fig_5f, single replicate values
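Throughout, for GPCRome agonism screen response: fold over basal response of each receptor without drug.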

Chain of 320 non-olfactory GPCRs (Homo sapiens, UniProt P35346) (P35346 whole entry): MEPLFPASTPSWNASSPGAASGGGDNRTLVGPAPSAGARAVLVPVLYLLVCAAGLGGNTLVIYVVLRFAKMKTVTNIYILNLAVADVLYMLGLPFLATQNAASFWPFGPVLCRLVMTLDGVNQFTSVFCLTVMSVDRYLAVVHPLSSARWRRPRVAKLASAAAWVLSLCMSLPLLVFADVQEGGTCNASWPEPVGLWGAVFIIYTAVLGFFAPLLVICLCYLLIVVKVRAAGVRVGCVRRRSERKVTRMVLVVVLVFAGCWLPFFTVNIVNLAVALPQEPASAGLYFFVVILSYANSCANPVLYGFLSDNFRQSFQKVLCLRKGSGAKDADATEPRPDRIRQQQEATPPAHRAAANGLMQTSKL
T2 sequence (Q96RI8 whole entry): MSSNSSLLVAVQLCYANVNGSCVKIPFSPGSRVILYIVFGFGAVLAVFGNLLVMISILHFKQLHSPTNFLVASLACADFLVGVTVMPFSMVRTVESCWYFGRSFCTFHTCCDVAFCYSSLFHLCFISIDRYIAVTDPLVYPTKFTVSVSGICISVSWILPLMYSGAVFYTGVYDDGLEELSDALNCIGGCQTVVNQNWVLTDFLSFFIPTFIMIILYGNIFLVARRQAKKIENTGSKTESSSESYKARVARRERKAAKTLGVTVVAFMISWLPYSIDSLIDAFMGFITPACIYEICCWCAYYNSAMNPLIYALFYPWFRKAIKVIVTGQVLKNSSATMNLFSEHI
T1 sequence (P43119 whole entry): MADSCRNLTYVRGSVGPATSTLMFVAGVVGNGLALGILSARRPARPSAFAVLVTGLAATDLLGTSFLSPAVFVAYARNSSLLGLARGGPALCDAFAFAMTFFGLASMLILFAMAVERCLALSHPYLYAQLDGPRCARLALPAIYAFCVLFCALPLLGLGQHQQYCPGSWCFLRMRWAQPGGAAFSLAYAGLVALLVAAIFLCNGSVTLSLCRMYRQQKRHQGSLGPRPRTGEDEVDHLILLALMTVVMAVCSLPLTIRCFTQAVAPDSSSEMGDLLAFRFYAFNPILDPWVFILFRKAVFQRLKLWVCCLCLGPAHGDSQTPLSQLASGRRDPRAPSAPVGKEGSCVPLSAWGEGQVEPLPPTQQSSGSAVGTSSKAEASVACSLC
Chain of 320 non-olfactory GPCRs (Homo sapiens, UniProt P30872) (P30872 whole entry): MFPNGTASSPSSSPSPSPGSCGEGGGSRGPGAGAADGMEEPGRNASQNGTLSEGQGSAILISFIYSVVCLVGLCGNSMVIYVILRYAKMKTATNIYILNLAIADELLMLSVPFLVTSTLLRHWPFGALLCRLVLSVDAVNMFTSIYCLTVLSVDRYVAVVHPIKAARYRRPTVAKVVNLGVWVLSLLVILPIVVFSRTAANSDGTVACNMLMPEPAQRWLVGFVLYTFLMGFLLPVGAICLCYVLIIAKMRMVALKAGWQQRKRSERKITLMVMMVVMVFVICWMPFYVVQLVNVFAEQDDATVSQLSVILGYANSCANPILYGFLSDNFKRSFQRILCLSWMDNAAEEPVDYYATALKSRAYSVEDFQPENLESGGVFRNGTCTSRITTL

Compound	GPCRome screening signal at PTGIR (320 non-olfactory GPCRs [1]; [5])	GPCRome screening signal at SSTR1 (320 non-olfactory GPCRs [2]; [5])	GPCRome screening signal at TAAR6 (320 non-olfactory GPCRs [3]; [5])	GPCRome screening signal at SSTR5 (320 non-olfactory GPCRs [4]; [5])	GPCRome agonism screen response (320 non-olfactory GPCRs [1]; replicate values, Fig_4g)	GPCRome agonism screen response (320 non-olfactory GPCRs [2]; replicate values, Fig_4g)	GPCRome agonism screen response (320 non-olfactory GPCRs [3]; replicate values, Fig_4g)	GPCRome agonism screen response (320 non-olfactory GPCRs [4]; replicate values, Fig_4g)
CCOc1ccccc1CCC(C)NCC1(O)CCCCC1.Cl (racemic) [Fig_5f]	0.4707 and 0.7235 and 1.819 and 1.564	2.563 and 1.311 and 1.193 and 0.9402	0.9086 and 0.7284 and 0.9687 and 0.7288	1.884 and 1.207 and 1.033 and 0.572	–	–	–	–
CCOc1cccc2cc(C(C)NCC3(O)CCCCC3)oc12 (centres unmarked) [O4LE6]	–	–	–	–	1.654 and 0.8806 and 0.8629 and 1.301	1.245 and 0.3022 and 1.123 and 1.305	1.686 and 0.9412 and 0.4865 and 0.01025	1.067 and 0.3371 and 0.8014 and 0.9752

— publication PMC7044277 (Nature Communications, 2020)
